According to US8287919B2, “Low environmental impact pesticide made from “gras” ingredients for use against coqui frogs and other species” (priority 2009, dated 2012):
Where two headings read alike, the source gives them in different places.

Legend:
[1] = tested on: mature Palm trees; experiment: Phytotoxicity to sprayed palm trees; assay type: in vivo; details: spray on mature palm trees
Description: Large-scale examples of the product's use and phytotoxicity at the same concentration (about 11.5%) as used in previous examples were also conducted by Palms of Hawaii. A five-gallon back pack sprayer equipped with a mist spray nozzle was used to spray mature Palm trees being prepared for distribution with about a gallon of spray each.
Upon spraying palm trees having frogs, frogs leap off the root balls and crowns and from the junctions between the fronds and tree trunks. The nurseryman rated the complete removal, if not extermination of all frogs from the trees as excellent.

[2] = tested on: common plants; parameters: key: severe: most if not all the leaves turned black; flowers and leaves became bleached and recovery was slow; moderate: young leaves and new shoots burned; the outer edges of leaves burned and dropped; dark brown spots appeared where acid may have concentrated; and recovery of the plants were slow; slight: the leaves were spotted white, or lesions formed on the trunk; details: citric acid 25%, three days after treatment, cited from earlier work
[3] = tested on: Coqui; details: in vivo; cited from earlier work
[4] = tested on: frogs; experiment: Frog killing time with different concentrations; assay type: in vivo, Eleutherodactylus coqui
Description: Additionally, this formulation killed 10 out of 10 frogs within about 15 minutes.

[5] = tested on: human skin; experiment: Contact with human skin; assay type: in vivo; details: solution with pH of less than 0.5
Description: As discussed above, AGIIS has relatively less dehydrating properties (such as charring sucrose) as compared to the saturated solution of CaSO4 in the same concentration of H2SO4. […] AGIIS has low volatility at room temperature and pressure.
In view of the need to find new phytogenic friendly alternatives for controlling the spread of Coqui frogs, a commercially available food sanitation product (i.e. Acidic Calcium Sulfate (“ACS”) was evaluated for inclusion in the current inventory of chemicals that can be applied as sprays. ACS and functional equivalents thereof are made from ingredients that are generally regarded as safe (“GRAS”), and is approved for use in food by the FDA and USDA. Although not wanting to be bound by theory, the efficacy of this product stems from its very unique characteristic of being able to donate a very high activity of hydrogen ions (low pH), while at the same time, having very low oxidative effects on plants and human skin. For example, a five (5) normal concentration of ACS having a pH of approximately zero may be held in the human hand without harm to the person holding the acid. In contrast, when very small amounts are applied to the skin of Coqui frogs it is quickly absorbed and respiration is immediately impaired with lethal results. […]

## O=C(O)CC(O)(CC(=O)O)C(=O)O [citric acid]
[1]
  phytotoxicity to palm trees: typically causes browning
[2]; guava plant, bromeliad, dendrobium orchid and leatherleaf fern
  phytotoxicity rating: moderate
[2]; passion fruit and payaya
  phytotoxicity rating: slight
[2]; streptocarpus, calathea and eggplants
  phytotoxicity rating: severe

## [Ca+2].[OH-].[OH-] [hydrated lime]
[3]
  effectiveness in eradicating frogs: not entirely effective

## CCC(=O)O [propionic acid]
[4]; 5% solution
  killing speed compared with standard citric acid: killed equally fast
[4]; 10% solution
  killing speed compared with standard citric acid: killed frogs faster than standard citric acid
[4]; concentrations from about 5% to about 10%
  lethality to frogs: lethal to the frogs in the test group

## O=S(=O)(O)O [sulfuric acid]
[5]
  irritation of hand put into solution: an irritation would occur within a relatively short span of time
